From patent US20140199714A1, “METHOD FOR DETECTING CANCER CELLS METASTASIZING INTO SENTINEL LYMPH NODE” (SHINSHU UNIVERSITY, priority 2008, published 2014)

Key:
Assay type in all cases: cell-based
E-selectin on human LECs = test: Immunohistochemical expression of E-selectin on cultured human LECs
Description: (§1) Using an indirect immunohistochemical technique, the inventors examined the effects of the supernatants of culture medium of two kinds of carcinoma cells, MDA-MB-231 and MCF-7, on the expression of adhesion molecules such as E-selectin, P-selectin, vascular cell adhesion molecule (VCAM)-1, and intercellular adhesion molecule (ICAM)-1 on the human LECs. The carcinoma cells were plated in DMEM/F12 with 10% FBS, which was replaced the following day with DMEM/F12 with 3% FBS, and then collected after overnight culture. The collected solution was centrifuged at 2,000 rpm for 5 min. at 4° C. To examine the effects of the supernatants on the expression of the adhesion molecules on the human LECs, 1 mL of each collected solution was added to starvation culture medium, EBM-2 with 3% FBS of the human LECs, and then stimulated for 48 hrs. on the cells. In some experiments, the supernatant solutions at different concentrations (1/100 or 1/10,000 dilution) were constructed with appropriate volumes of DMEM/F12 with 3% FBS.
(§2) Indirect immunohistochemical studies were performed on the cultured LECs seeded or glass slides coated with type I collagen, and then the cells were fixed with 3.3% formalin in phosphate-buffered saline solution (PBS), for 20 min. at room temperature. The cells were washed three times with PBS, and then incubated overnight at 4° C. with primary polyclonal human antisera to E-selectin/CD62E (dilution 10 μg/mL, available from R&D Systems, US), P-selectin/CD62P (dilution 10 μg/mL, available from R&D Systems, US), VCAM-1/CD106 (dilution 10 μg/mL, available from R&D Systems, US), and ICAM-1/CD54 (dilution 10 μg/mL, available from R&D Systems, US).
(§3) Before primary staining, the cultured cells were permeabilized with 0.1% TRITON-X. After washing three times in PBS, the cells were incubated for 1 hr. at room temperature with 1:100 diluted ALEXA FLUOR 488 donkey anti-mouse IgG (available from Invitrogen, US). The nuclei of cultured cells were counter-stained and mounted with PROLONG GOLD antifade reagent with 4′-6-diamidine-2-phenylindole (DAPI) (available from Molecular Probes, US), examined by a fluorescent microscope (Leica, Switzerland), and photographed.
(§4) Immunohistochemistry was performed on the cultured human LECs or the fresh-frozen SLNs isolated from the breast cancer patients. In brief, the cultured LECs were fixed with 10% formalin in the phosphate-buffered saline solution (PBS) at room temperature. The cells were incubated for 4 hrs. at room temperature with primary polyclonal human antisera platelet-endothelial cell adhesion molecule (PECAM)-1 (dilution 1:100, available from BD Biosciences, US), lymphatic vessel endothelial hyaluronan receptor (LYVE)-1 (dilution 1:50, available from RELIATech, Germany), PROX-1 (dilution 1:50, available from AngioBio, US), podoplanin (dilution 1:50, available from AngioBio, US), vascular endothelium growth factor receptor 3 (VEGF R3) (dilution 1:50, available from Santa Cruz, US), E-selectin/CD62E (dilution 1:50, available from R&D systems, US), P-selectin/CD62P (dilution 1:50, available from R&D systems, US), vascular cell adhesion molecule (VCAM)-1/CD106 (dilution 1:50, available from R&D systems, US), and intercellular adhesion molecule (ICAM)-1/CD54 (dilution 1:50, available from R&D systems, US). Before the staining, permeabilization of the cultured cells with 0.1% TRITON-X was performed. Then, the cells were stained using the following antibodies: ALEXA FLUOR 488 chicken anti-rabbit IgG or ALEXA FLUOR 488 donkey anti-mouse IgG (available from Invitrogen, US). The nuclei of the cultured cells were counter-stained and mounted with ProLong Gold antifade reagent with 4′-6-diamidine-2-phenylindole (DAPI) (available from Molecular Probes, US). The cultured cells were examined by a fluorescent microscope (available from Leica, Germany) and photographed. […]

VCAM-1 on human LECs = test: Immunohistochemical expression of VCAM-1 on cultured human LECs
Description: as §1, §2, §3, §4

[1] = test system: attachment of MCF-7 carcinoma cells to human LECs; test: In vitro human LECs attachment assay (CCL2), MCF-7; conditions: 18 hrs.-stimulation of 10 ng/mL CCL2 vs negative control with DMEM/F12; p<0.01
Description: The human LECs were plated to form a monolayer on type I collagen-coated 35 mm plates and incubated to confluence in 5% O2, 5% CO2, and 90% N2 at 37° C. The LECs were kept in serum-starved medium containing EBM-2 with 3% FBS. Selected plates were treated with 10 ng/mL CCL2 for 18 hrs. In some experiments, the plates were stimulated by the serum-starved medium pretreated with neutralization of 10 ng/mL CCL2 with 1.0 μg/mL CCL2 specific antibody.
In some experiments, the plates were also treated with anti-human ICAM-1 antibody (available from R&D systems, US) for 30 min. after the 18 hrs. treatment with 10 ng/mL CCL2.
The two kinds of the breast carcinoma cells such as MDA-MB-231 and MCF-7 stained with PKH26 fluorescent dye (available from SIGMA, US) were then plated at 1×10^5 cells per plate and incubated for 30 min. at 37° C. Unbound cells were removed by aspiration, and the plates were washed with EBM-2 three times. The attachment of the carcinoma cells was quantified by counting the number of cells under ×100 magnification using a Leica microscope.

[2] = test system: ICAM-1 protein in human LECs; test: Western blot analysis of ICAM-1 protein in human LECs; conditions: 18 hrs.-stimulation of 10 ng/mL CCL2
Description: Western blot analysis was performed to quantitatively evaluate the CCL2-mediated ICAM-1 expression on the cultured human LECs. The cells were dissolved in M-PER (Mammalian Protein Extraction Reagent available from Thermo Fisher Scientific Inc., US) and centrifuged at 14,000 r.p.m. for 10 min. A 15 μg sample of the total cell lysate was resolved in SDS sample buffer for sodium dodecyl sulfate-polyacrylamide gel electrophoresis (SDS-PAGE) and transferred to an polyvinylidene difluoride (PVDF) membrane (available from Atto Corporation, Japan), where it was incubated for 45 min The membrane was probed with the anti-ICAM-1 antiserum (dilution 1:1000, available from Cell Signaling Technology Inc., US) and then incubated with anti-rabbit immunoglobulin G (IgG) horseradish peroxidase conjugated antibody. The same membrane was reprobed with monoclonal anti-actin antibody (available from Santa Cruz Biotechnology Inc., US) and then visualized with an ECL-Western blotting detection system (available from Amersham Bioscience Inc., UK).

ICAM-1 on human LECs = test: Immunohistochemical expression of ICAM-1 on cultured human LECs
[3] = 4 hrs-stimulation of 10 ng/mL CCL2
[4] = 18 hrs.-stimulation with 10 ng/mL chemokine

CCL2: chemokine CCL2 was tested, and the “immunoreaction of anti-E-selectin” value (E-selectin on human LECs; 10 ng/mL CCL2, stimulation time increased to 18 hrs. and 48 hrs.) was “markedly decreased”, the “staining with E-selectin antiserum on LECs” value (E-selectin on human LECs; [3]) was “Slight staining” and the “expression of E-selectin on human LECs” value (E-selectin on human LECs; [4]) was “Little or no expression”. The “expression of VCAM-1 on human LECs” value (VCAM-1 on human LECs; [3]) was “no or little expression”, the “expression of VCAM-1 on human LECs” value (VCAM-1 on human LECs; [4]) was “Little or no expression” and the “in vitro attachment of MCF-7 to human LECs” value [1] was “significant increase”. For the same substance, the “expression of ICAM-1 protein” value [2] was “significant expression”, the “intensity of the immunoreactivity for ICAM-1” value (ICAM-1 on human LECs; 10 ng/mL CCL2, stimulation time of 18 hrs. only) was “significantly increased” and the “contrast-density of ICAM-1 staining (mean density/pixel)” value (ICAM-1 on human LECs; 10 ng/mL CCL2 vs negative control, p<0.01, n=5) was “increases significantly”. The “expression of ICAM-1 on human LECs” value (ICAM-1 on human LECs; [3]) was “marked expression”, the “expression of ICAM-1 on human LECs” value (ICAM-1 on human LECs; [4]) was “marked expression” and the “expression of ICAM-1 on human LECs” value (ICAM-1 on human LECs; 18 hrs.-stimulation, 10 pg/mL CCL2) was “slight, but significant, expression”. The “expression of ICAM-1 on human LECs” value (ICAM-1 on human LECs; 18 hrs.-stimulation, 1 ng/mL or 10 ng/mL of CCL2) was “marked expression”.
